{"source": "patent US9815796B2", "about": "(Merck Sharp & Dohme Corp., priority 2013, dated 2017)", "key": {"[1]": {"molecular_target": "Rhesus PDE2A3 (Macaca mulatta, UniProt B3VTJ2)", "sequence (B3VTJ2 1-941)": "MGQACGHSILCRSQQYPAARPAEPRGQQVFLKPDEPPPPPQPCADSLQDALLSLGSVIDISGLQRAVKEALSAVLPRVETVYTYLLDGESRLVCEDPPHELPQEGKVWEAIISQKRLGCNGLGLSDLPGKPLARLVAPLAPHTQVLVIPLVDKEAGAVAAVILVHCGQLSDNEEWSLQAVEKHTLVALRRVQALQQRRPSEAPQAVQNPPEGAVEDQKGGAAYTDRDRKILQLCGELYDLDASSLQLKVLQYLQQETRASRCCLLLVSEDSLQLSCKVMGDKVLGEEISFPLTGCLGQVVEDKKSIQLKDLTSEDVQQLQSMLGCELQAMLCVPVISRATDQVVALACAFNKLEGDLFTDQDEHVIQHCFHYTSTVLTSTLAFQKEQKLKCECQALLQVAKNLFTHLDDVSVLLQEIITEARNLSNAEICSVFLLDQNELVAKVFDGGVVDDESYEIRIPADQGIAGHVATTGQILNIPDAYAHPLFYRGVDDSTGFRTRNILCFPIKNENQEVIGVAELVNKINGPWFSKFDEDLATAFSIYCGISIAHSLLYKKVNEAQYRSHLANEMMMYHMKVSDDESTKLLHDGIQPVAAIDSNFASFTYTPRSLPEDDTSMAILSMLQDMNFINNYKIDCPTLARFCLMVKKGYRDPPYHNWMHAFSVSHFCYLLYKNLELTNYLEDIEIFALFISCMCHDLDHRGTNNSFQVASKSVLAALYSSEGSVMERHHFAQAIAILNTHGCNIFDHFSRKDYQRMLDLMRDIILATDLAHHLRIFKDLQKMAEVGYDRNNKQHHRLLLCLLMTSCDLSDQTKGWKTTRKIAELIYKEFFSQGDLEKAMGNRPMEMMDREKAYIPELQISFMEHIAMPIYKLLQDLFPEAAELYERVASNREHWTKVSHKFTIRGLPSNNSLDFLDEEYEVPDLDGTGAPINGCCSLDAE", "test": "PDE2 fluorescence polarization (IMAP FP) inhibition assay, rhesus enzyme", "format": "biochemical, rhesus macaque", "outline": "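IMAP FP (mP from parallel and perpendicular fluorescence against substrate-only control) was read ≥1 h after adding binding reagent. The preceding 60 min room-temperature reaction contained FAM-cAMP (50 nM) and cGMP (1 uM) in pH 7.2 Tris buffer with MgCl2 and DTT. Enzyme was supernatant of sonicated AD293 cells expressing rhesus PDE2A3; compounds were 3-fold titrated, DMSO 1% final.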"}, "[2]": {"molecular_target": "human PDE2A1 (Homo sapiens (Human), UniProt O00408)", "sequence (O00408 other isoform, or with tags, fused parts or gaps)": "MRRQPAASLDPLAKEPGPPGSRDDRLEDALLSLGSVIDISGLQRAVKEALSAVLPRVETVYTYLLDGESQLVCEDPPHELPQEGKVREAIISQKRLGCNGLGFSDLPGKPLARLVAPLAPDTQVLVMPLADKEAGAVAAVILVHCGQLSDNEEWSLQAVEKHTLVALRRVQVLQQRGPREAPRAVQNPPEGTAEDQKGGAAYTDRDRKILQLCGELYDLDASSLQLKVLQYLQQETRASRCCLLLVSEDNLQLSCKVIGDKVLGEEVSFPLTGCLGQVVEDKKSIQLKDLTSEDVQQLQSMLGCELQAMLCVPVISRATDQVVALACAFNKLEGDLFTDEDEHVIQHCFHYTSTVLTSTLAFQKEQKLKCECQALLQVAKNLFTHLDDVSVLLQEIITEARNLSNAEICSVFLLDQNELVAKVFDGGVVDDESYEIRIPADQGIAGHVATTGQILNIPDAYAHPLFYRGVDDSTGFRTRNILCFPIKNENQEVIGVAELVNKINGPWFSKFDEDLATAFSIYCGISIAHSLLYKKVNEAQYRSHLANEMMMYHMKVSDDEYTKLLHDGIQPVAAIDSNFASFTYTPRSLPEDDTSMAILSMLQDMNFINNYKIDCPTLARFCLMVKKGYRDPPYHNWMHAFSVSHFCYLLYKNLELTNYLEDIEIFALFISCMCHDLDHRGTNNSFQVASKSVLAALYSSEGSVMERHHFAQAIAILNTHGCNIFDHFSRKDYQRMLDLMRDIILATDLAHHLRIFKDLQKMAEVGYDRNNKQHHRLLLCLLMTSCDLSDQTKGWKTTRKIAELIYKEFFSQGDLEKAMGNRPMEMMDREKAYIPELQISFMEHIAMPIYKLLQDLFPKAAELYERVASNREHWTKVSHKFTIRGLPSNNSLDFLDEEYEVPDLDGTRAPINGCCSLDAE", "test": "IMAP FP PDE selectivity panel, human PDE2A1", "format": "biochemical", "outline": "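IMAP FP format: substrate 50 nM FAM-cAMP plus 1000 nM cGMP, enzyme (insect-cell GST-tagged human PDE2A1) at ~20% conversion, 60 min reaction at room temperature. Apparent inhibition constants calculated from parallel/perpendicular fluorescence with KM 10,000 nM.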"}, "[3]": {"settings": "Rhesus PDE2, Lab A, read-out: Rhesus PDE2 Ki (nM) - Lab A"}, "[4]": {"settings": "Human PDE2, Lab A, read-out: Human PDE2 Ki (nM) - Lab A"}, "[5]": {"settings": "Rhesus PDE2, Lab B, read-out: Rhesus PDE2 Ki (nM) - Lab B"}, "[6]": {"settings": "Human PDE2, Lab B, read-out: Human PDE2 Ki (nM) - Lab B"}}, "note": "Where two headings read alike, the source gives them in different places.", "data": [{"smiles": "C[C@@H](NC(=O)c1cc(=O)[nH]c(-c2ccccc2)n1)c1ccc(OC(F)(F)F)cc1", "note": "[Example 275, 6-oxo-2-phenyl-N-{(1R)-1-[4-(trifluoromethoxy)phenyl]ethyl}-1,6-dihydropyrimidine-4-carboxamide]", "values": [{"measurement": "Ki", "setting": "[1]; [3]", "result": 4.5, "unit": "nM"}, {"measurement": "Ki", "setting": "[2]; [4]", "result": 3, "unit": "nM"}]}, {"smiles": "Cc1cc([C@@H](C)NC(=O)c2cc(=O)[nH]c(-c3ccccc3)n2)ccc1C(F)(F)F", "note": "[Example 189]", "values": [{"measurement": "Ki", "setting": "[1]; [3]", "result": 10, "unit": "nM"}, {"measurement": "Ki", "setting": "[2]; [4]", "result": 9.7, "unit": "nM"}]}, {"smiles": "COc1ccc2cc(C(C)NC(=O)c3cc(=O)[nH]c(-c4ncccn4)n3)ccc2c1", "note": "(stereo not drawn) [Example 84, N-[1-(6-methoxynaphthalen-2-yl)ethyl]-6-oxo-1,6-dihydro-2,2′-bipyrimidine-4-carboxamide]", "values": [{"measurement": "Ki", "setting": "[1]; [3]", "result": 117, "unit": "nM"}, {"measurement": "Ki", "setting": "[2]; [4]", "result": 28, "unit": "nM"}]}, {"smiles": "C[C@@H](NC(=O)c1cc(=O)[nH]c(Cc2ccc(F)cc2)n1)c1ccc(C(F)(F)F)cc1", "note": "[Example 132, 2-(4-fluorobenzyl)-6-oxo-N-{(1R)-1-[4-(trifluoromethyl)phenyl]ethyl}-1,6-dihydropyrimidine-4-carboxamide]", "values": [{"measurement": "Ki", "setting": "[1]; [3]", "result": 34, "unit": "nM"}, {"measurement": "Ki", "setting": "[2]; [4]", "result": 24, "unit": "nM"}]}, {"smiles": "Cc1nc(C(=O)N[C@@H](c2ccc(C(F)(F)F)cc2)C(C)(C)C)cc(=O)[nH]1", "note": "[Example 249, N-{(1R)-2,2-dimethyl-1-[4-(trifluoromethyl)phenyl]propyl}-2-methyl-6-oxo-1,6-dihydropyrimidine-4-carboxamide]", "values": [{"measurement": "Ki", "setting": "[1]; [3]", "result": 2, "unit": "nM"}, {"measurement": "Ki", "setting": "[1]; [5]", "result": 4.3, "unit": "nM"}, {"measurement": "Ki", "setting": "[2]; [6]", "result": 4.1, "unit": "nM"}]}, {"smiles": "CC(C)(C)[C@@H](NC(=O)c1cc(=O)[nH]c(C2CC2)n1)c1ccc(C(F)(F)F)c(F)c1", "note": "[Example 438, 2-cyclopropyl-N-{(1R)-1-[3-fluoro-4-(trifluoromethyl)phenyl]-2,2-dimethylpropyl}-6-oxo-1,6-dihydropyrimidine-4-carboxamide]", "values": [{"measurement": "Ki", "setting": "[1]; [5]", "result": 1.5, "unit": "nM"}, {"measurement": "Ki", "setting": "[2]; [6]", "result": 1.3, "unit": "nM"}]}, {"smiles": "O=C(NC1(c2ccc(OC(F)(F)F)cc2)CCC1)c1cc(=O)[nH]c(-c2ccccc2)n1", "note": "[Example 282]", "values": [{"measurement": "Ki", "setting": "[1]; [3]", "result": 124, "unit": "nM"}, {"measurement": "Ki", "setting": "[2]; [4]", "result": 61, "unit": "nM"}]}, {"smiles": "CC[C@@H](NC(=O)c1cc(=O)[nH]c(Cc2ccc(OC)c(F)c2)n1)c1ccc(SC(F)(F)F)cc1", "note": "[Example 518, 2-(3-fluoro-4-methoxybenzyl)-6-oxo-N-[(1R)-1-{4-[(trifluoromethyl)sulfanyl]phenyl}propyl]-1,6-dihydropyrimidine-4-carboxamide]", "values": [{"measurement": "Ki", "setting": "[1]; [5]", "result": 1.8, "unit": "nM"}, {"measurement": "Ki", "setting": "[2]; [6]", "result": 1.7, "unit": "nM"}]}, {"smiles": "COc1ccc(Cc2nc(C(=O)N[C@@H](c3ccc(SC(F)(F)F)c(F)c3)C(C)C)cc(=O)[nH]2)cc1", "note": "[Example 470, N-[(1R)-1-{3-fluoro-4-[(trifluoromethyl)sulfanyl]phenyl}-2-methylpropyl]-2-(4-methoxybenzyl)-6-oxo-1,6-dihydropyrimidine-4-carboxamide]", "values": [{"measurement": "Ki", "setting": "[1]; [5]", "result": 1.2, "unit": "nM"}, {"measurement": "Ki", "setting": "[2]; [6]", "result": 1.3, "unit": "nM"}]}, {"smiles": "CC[C@@H](NC(=O)c1cc(=O)[nH]c(-c2ccccc2)n1)c1ccc(SC(F)(F)F)cc1", "note": "[Example 151, 6-oxo-2-phenyl-N-[(1R)-1-{4-[(trifluoromethyl)sulfanyl]phenyl}propyl]-1,6-dihydropyrimidine-4-carboxamide]", "values": [{"measurement": "Ki", "setting": "[1]; [3]", "result": 3.3, "unit": "nM"}, {"measurement": "Ki", "setting": "[2]; [4]", "result": 3.2, "unit": "nM"}]}, {"smiles": "CC(C)(NC(=O)c1cc(=O)[nH]c(C2CC2)n1)c1ccc(C(F)(F)F)c(F)c1", "note": "[Example 200, 2-cyclopropyl-N-{1-[3-fluoro-4-(trifluoromethyl)phenyl]-1-methylethyl}-6-oxo-1,6-dihydropyrimidine-4-carboxamide]", "values": [{"measurement": "Ki", "setting": "[1]; [3]", "result": 16, "unit": "nM"}, {"measurement": "Ki", "setting": "[2]; [4]", "result": 9.2, "unit": "nM"}]}, {"smiles": "COc1ccc(C(C)(C)c2nc(C(=O)N[C@@H](c3ccc(C(F)(F)F)cc3)C(C)C)cc(=O)[nH]2)cc1", "note": "[Example 493, 2-[1-(4-methoxyphenyl)-1-methylethyl]-N-{(1R)-2-methyl-1-[4-(trifluoromethyl)phenyl]propyl}-6-oxo-1,6-dihydropyrimidine-4-carboxamide]", "values": [{"measurement": "Ki", "setting": "[1]; [5]", "result": 77, "unit": "nM"}, {"measurement": "Ki", "setting": "[2]; [6]", "result": 62, "unit": "nM"}]}, {"smiles": "COc1ccc(C(C)(C)c2nc(C(=O)N[C@@H](c3ccc(OC(F)(F)F)c(F)c3)C(C)C)cc(=O)[nH]2)cc1", "note": "[Example 492, N-{(1R)-1-[3-fluoro-4-(trifluoromethoxy)phenyl]-2-methylpropyl}-2-[1-(4-methoxyphenyl)-1-methylethyl]-6-oxo-1,6-dihydropyrimidine-4-carboxamide]", "values": [{"measurement": "Ki", "setting": "[1]; [5]", "result": 42, "unit": "nM"}, {"measurement": "Ki", "setting": "[2]; [6]", "result": 29, "unit": "nM"}]}]}
